Experimental data reported in patent US10214542B2, “Modified macrocyclic compounds” (BAYER PHARMA AKTIENGESELLSCHAFT, priority 2015, dated 2019).

Assays:
[1] = target: T1, CDK9/CycT1 (Homo sapiens, UniProt P50750); assay: CDK9/CycT1 high ATP kinase assay (TR-FRET, Method 1b); assay type: biochemical; conditions: 2 mM ATP
T1 construct: Recombinant full-length His-tagged human CDK9 and CycT1; His; purchased Invitrogen PV4131; host or cells: insect cells

[2] = test system: DU145 cells; assay: Proliferation assay, crystal violet (Method 3); assay type: cell-based; conditions: Homo sapiens, DU-145, 96 h; DU145, 4 days; read-out: Inhibition of DU145 cell proliferation IC50
Experimental: (§1) Cultivated tumour cells (HeLa, human cervical tumour cells, ATCC CCL-2; NCI-H460, human non-small cell lung carcinoma cells, ATCC HTB-177; DU 145, hormone-independent human prostate carcinoma cells, ATCC HTB-81; HeLa-MaTu-ADR, multidrug-resistant human cervical carcinoma cells, EPO-GmbH Berlin; Caco-2, human colorectal carcinoma cells, ATCC HTB-37; B16F10, mouse melanoma cells, ATCC CRL-6475) were plated at a density of 5,000 cells/well (DU145, HeLa-MaTu-ADR), 3,000 cells/well (NCI-H460, HeLa), 1,500 cells/well (Caco-2), or 1,000 cells/well (B16F10) in a 96-well multititer plate in 200 μL of their respective growth medium supplemented 10% fetal calf serum. After 24 hours, the cells of one plate (zero-point plate) were stained with crystal violet (see below), while the medium of the other plates was supplemented with the test substances in various concentrations (0 μM, as well as in the range of 0.0001-10 μM; the final concentration of the solvent dimethyl sulfoxide was adjusted to 0.1%) using a Hewlett-Packard HP D300 Digital Dispenser. The cells were incubated for 4 days in the presence of test substances. Cell proliferation was determined by staining the cells with crystal violet: the cells were fixed by adding 20 μl/measuring point of an 11% glutaric aldehyde solution for 15 minutes at room temperature. After three washing cycles of the fixed cells with water, the plates were dried at room temperature. The cells were stained by adding 100 μl/measuring point of a 0.1% crystal violet solution (pH 3.0). After three washing cycles of the stained cells with water, the plates were dried at room temperature. The dye was dissolved by adding 100 μl/measuring point of a 10% acetic acid solution. The extinction was determined by photometry at a wavelength of 595 nm. The change of cell number, in percent, was calculated by normalization of the measured values to the extinction values of the zero-point plate (=0%) and the extinction of the untreated (0 μm) cells (=100%). The IC50 values (inhibitory concentration at 50% of maximal effect) were determined by means of a 4 parameter fit.

[3] = test system: HeLa-MaTu-ADR cells; assay: Proliferation assay, crystal violet (Method 3); assay type: cell-based; conditions: Homo sapiens, 96 h, 4 days, read-out: Inhibition of HeLa-MaTu-ADR cell proliferation IC50
Experimental: as §1

[4] = test system: B16F10 cells; assay: Proliferation assay, crystal violet (Method 3); assay type: cell-based; conditions: Mus musculus, B16-F10, 96 h; B16F10, 4 days; read-out: Inhibition of B16F10 cell proliferation IC50
Experimental: as §1

[5] = test system: Caco-2 cells; assay: Proliferation assay, crystal violet (Method 3); assay type: cell-based; conditions: Homo sapiens, 96 h; Caco-2, 4 days; read-out: Inhibition of Caco-2 cell proliferation IC50
Experimental: as §1

[6] = test system: NCI-H460 cells; assay: Proliferation assay, crystal violet (Method 3); assay type: cell-based; conditions: Homo sapiens, 96 h; NCI-H460, 4 days; read-out: Inhibition of NCI-H460 cell proliferation IC50
Experimental: as §1

T1 sequence (P50750 whole entry): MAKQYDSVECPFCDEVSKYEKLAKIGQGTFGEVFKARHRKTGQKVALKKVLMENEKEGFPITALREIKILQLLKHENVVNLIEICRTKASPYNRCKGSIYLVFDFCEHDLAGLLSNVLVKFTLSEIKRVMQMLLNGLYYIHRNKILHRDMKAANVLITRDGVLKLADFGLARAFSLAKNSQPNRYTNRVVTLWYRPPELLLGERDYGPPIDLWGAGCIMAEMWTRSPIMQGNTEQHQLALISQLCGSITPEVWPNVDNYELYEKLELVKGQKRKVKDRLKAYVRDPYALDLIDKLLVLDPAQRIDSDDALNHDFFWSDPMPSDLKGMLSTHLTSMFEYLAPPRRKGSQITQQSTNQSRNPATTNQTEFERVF
T1 sequence (O60563 whole entry partner): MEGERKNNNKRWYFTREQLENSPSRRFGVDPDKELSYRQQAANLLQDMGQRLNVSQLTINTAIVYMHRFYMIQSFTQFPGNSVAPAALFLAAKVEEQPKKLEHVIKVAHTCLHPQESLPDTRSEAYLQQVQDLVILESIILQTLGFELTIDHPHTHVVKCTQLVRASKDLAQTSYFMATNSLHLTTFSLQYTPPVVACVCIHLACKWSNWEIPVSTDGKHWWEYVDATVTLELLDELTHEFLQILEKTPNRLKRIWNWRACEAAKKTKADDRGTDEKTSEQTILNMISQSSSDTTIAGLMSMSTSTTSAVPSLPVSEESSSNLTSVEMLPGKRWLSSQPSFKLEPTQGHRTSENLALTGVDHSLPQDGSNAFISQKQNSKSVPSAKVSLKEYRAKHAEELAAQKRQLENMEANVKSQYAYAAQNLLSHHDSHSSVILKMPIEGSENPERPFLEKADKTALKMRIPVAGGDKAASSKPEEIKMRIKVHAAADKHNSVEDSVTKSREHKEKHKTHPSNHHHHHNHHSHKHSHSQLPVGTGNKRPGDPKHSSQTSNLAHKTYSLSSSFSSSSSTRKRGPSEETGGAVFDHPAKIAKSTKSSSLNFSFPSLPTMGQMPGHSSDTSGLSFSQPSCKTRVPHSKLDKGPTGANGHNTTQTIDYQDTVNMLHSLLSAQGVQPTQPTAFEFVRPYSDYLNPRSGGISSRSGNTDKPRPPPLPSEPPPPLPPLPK

IC50 ([1]; Method 1b): 0.246 µM
Selectivity high ATP CDK9 over high ATP CDK2: IC50 (high ATP CDK2)/IC50 (high ATP CDK9) ([1]; Methods 1b and 2b): >81.3
IC50 [2]: > 10 µM
IC50 [3]: > 10 µM
IC50 [4]: > 10 µM
IC50 [5]: 4.64 µM
IC50 [6]: > 10 µM
Structure (SMILES): CSCc1cc2nc(c1)OCCCCCc1cc(F)ccc1-c1cc(ncc1F)N2 [Example 18, 2,19-difluoro-9-[(methylsulfanyl)methyl]-14,15,16,17-tetrahydro-6H,13H-7,11-(azeno)-5,1-(metheno)-12,4,6-benzoxadiazacyclononadecine]
